We go through 6 molecules from patent US20160271263A1 (Novo Nordisk A/S, priority 2010, published 2016).

Structures are written as SMILES. Read-outs that look alike come from different tables or passages of the source. Numbered stars: 1 amine (or outer) side, 2 acyl side, 3 side chain; on linkers, the order of the positions; unused ones are H or OH. Side chains are listed from the residue outwards. Peptide text beside a SMILES is read from it. * marks the point of attachment. C18 diacid = O=C(O)CCCCCCCCCCCCCCCCC(=O)*; γGlu = O=C(O)[C@H](CCC(=O)[*:2])N[*:1]; AEEA = NCCOCCOCC(=O)O

Usually EC50 stands for the concentration giving half of the maximal effect. By half-life is commonly meant the time in which the quantity being followed falls by half. Low readings indicate fast loss, high ones slow loss.

The target of series [1] is T1, glucagon receptor (Homo sapiens, UniProt P47871). The settings on record: read-out: Assay (I) Glucagon [EC50]; Table 1; HEK-293 cells, end point data after 6 minutes.
Procedure: (§1) The cells (14000 per well) were incubated (37° C., 5% CO2) overnight in 384-well plates. Next day the cells were loaded with a calcium responsive dye that only distributed into the cytoplasm. Probenecid, an inhibitor of the organic anion transporter, was added to prevent the dye from leaving the cell. A PDE inhibitor was added to prevent formatted cAMP from being degraded. […] End point data were collected after 6 minutes. An increase in intracellular cAMP was proportional to an increased in calcium concentrations in the cytoplasm. […] EC50-values were calculated in Prism5.
Series [2] has as its target DPP-IV (Homo sapiens, UniProt P27487). In words: in vitro. The protocol:
10 μM of peptide was incubated with DPP-IV (2 μg/ml) in duplicate at 37° C. in a HEPES buffer to which 0.005% Tween20 were added. […] The samples were analysed by LC-MS for parent peptide. Data were plotted according to 1st kinetics and the stability was reported as half-lives.

Series [3] in a line: in vivo. The conditions noted are these: male, Sprague Dawley, rat, plasma.
Procedure: Fifteen male rats (Sprague Dawley, 400 g, Taconic Europe) were divided into three groups of five rats. The rats were dosed at t=0 with either 15 nmol/kg IV, 30 nmol/kg SC, or 100 nmol/kg, respectively. The IV dosing was performed via the tail vein while the rats were shortly under isoflurane anaesthesia. […] Plasma samples were stored on freeze until analysed by LCMS.
In series [4] the target is T1, glucagon receptor. In words: cell-based.
Procedure: as §1
Series [5] in a line: ThT fibrillation assay for physical stability (lag time and recovery). The conditions noted are these: Table 2. It is filed as physicochemical. From the text:
This has traditionally been measured by visual inspection of the sample. However, that kind of measurement is very subjective and depending on the observer. Therefore, the application of a small molecule indicator probe is much more advantageous. […] Enzymol.
Here, F is the ThT fluorescence at the time t. […] The two important parameters describing fibril formation are the lag-time calculated by t0−2τ and the apparent rate constant kapp 1/τ.
Few of those intermediates nucleate to form a template onto which further intermediates may assembly and the fibrillation proceeds. The lag-time corresponds to the interval in which the critical mass of nucleus is built up and the apparent rate constant is the rate with which the fibril itself is formed.
Samples were prepared freshly before each assay. […] The pH of the sample was adjusted to the desired value using appropriate amounts of concentrated NaOH and HCl. Thioflavin T was added to the samples from a stock solution in H2O to a final concentration of 1 μM.
The plate was sealed with Scotch Pad (Qiagen).
Each run was initiated by incubating the plate at the assay temperature for 10 min. The plate was measured every 20 minutes for a desired period of time. Between each measurement, the plate was shaken and heated as described.
The supernatant was filtered through a 0.22 μm filter and an aliquot was transferred to a HPLC vial. […]

T1 sequence (P47871 26-477): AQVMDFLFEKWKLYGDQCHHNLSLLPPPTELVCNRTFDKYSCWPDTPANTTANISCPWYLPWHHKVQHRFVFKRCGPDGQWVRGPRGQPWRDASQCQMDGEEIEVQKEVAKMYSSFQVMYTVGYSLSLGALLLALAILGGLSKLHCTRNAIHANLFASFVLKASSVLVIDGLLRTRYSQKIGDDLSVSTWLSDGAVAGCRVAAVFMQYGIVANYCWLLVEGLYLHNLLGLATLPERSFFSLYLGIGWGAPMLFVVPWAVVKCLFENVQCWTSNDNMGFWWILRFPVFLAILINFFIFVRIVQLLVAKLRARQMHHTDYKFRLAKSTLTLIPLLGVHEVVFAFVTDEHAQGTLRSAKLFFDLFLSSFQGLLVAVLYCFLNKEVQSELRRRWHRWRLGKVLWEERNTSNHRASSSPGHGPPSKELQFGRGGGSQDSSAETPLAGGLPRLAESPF
Chain of DPP-IV (P27487 whole entry, species assumed): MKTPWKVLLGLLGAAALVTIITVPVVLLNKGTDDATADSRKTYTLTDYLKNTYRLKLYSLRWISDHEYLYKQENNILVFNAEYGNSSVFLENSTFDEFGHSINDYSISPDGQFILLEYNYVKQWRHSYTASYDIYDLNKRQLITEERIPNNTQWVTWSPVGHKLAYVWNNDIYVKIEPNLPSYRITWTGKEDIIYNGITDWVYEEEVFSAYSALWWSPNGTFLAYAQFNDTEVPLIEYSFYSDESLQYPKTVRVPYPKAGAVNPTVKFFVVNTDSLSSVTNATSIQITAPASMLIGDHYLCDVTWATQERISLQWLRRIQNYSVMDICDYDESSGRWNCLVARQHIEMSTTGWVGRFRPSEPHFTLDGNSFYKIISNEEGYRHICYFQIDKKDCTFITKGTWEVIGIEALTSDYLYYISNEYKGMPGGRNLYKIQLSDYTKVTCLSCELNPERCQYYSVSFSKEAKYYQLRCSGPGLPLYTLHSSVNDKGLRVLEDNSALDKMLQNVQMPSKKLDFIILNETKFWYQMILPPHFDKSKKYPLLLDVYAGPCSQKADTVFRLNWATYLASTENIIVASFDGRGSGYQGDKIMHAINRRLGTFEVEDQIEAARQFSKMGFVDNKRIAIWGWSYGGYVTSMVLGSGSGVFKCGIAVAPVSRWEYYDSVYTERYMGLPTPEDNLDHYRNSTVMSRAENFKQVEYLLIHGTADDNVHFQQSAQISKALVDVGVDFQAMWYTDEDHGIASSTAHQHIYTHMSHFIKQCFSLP

As to `CC(C)C[C@H](NC(=O)[C@H](Cc1ccc(O)cc1)NC(=O)[C@H](CCCCN)NC(=O)[C@H](CO)NC(=O)[C@H](Cc1ccc(O)cc1)NC(=O)[C@H](CC(=O)O)NC(=O)[C@H](CO)NC(=O)[C@@H](NC(=O)[C@H](Cc1ccccc1)NC(=O)[C@@H](NC(=O)CNC(=O)[C@H](CCC(N)=O)NC(=O)[C@H](CO)NC(=O)[C@@H](N)Cc1c[nH]cn1)[C@@H](C)O)[C@@H](C)O)C(=O)N[C@@H](CC(=O)O)C(=O)N[C@@H](CO)C(=O)N[C@@H](CCCNC(=N)N)C(=O)N[C@@H](CCCNC(=N)N)C(=O)N[C@@H](C)C(=O)N[C@@H](CCC(N)=O)C(=O)N[C@@H](CCC(=O)O)C(=O)N[C@@H](Cc1ccccc1)C(=O)N[C@H](C(=O)N[C@@H](CCCCNC(=O)COCCOCCNC(=O)COCCOCCNC(=O)CC[C@H](NC(=O)CCCCCCCCCCCCCCCCC(=O)O)C(=O)O)C(=O)N[C@@H](Cc1c[nH]c2ccccc12)C(=O)N[C@@H](CC(C)C)C(=O)N[C@@H](CC(C)C)C(=O)N[C@@H](CC(N)=O)C(=O)N[C@H](C(=O)O)[C@@H](C)O)C(C)C` [Example 21], the EC50 in series [1] is 0.021 nM.

In turn, `CC(C)C[C@H](NC(=O)[C@H](Cc1ccc(O)cc1)NC(=O)[C@H](CCCCN)NC(=O)[C@H](CO)NC(=O)[C@H](Cc1ccc(O)cc1)NC(=O)[C@H](CC(=O)O)NC(=O)[C@H](CO)NC(=O)[C@@H](NC(=O)[C@H](Cc1ccccc1)NC(=O)[C@@H](NC(=O)CNC(=O)[C@H](CCC(N)=O)NC(=O)[C@H](CO)NC(=O)[C@@H](N)Cc1c[nH]cn1)[C@@H](C)O)[C@@H](C)O)C(=O)N[C@@H](CC(=O)O)C(=O)N[C@@H](CO)C(=O)N[C@@H](CCCCN)C(=O)N[C@@H](CCCCN)C(=O)N[C@@H](C)C(=O)N[C@@H](CCC(N)=O)C(=O)N[C@@H](CCC(=O)O)C(=O)N[C@@H](Cc1ccccc1)C(=O)N[C@H](C(=O)N[C@@H](CCCCNC(=O)COCCOCCNC(=O)COCCOCCNC(=O)CC[C@H](NC(=O)CCCCCCCCCCCCCCCCC(=O)O)C(=O)O)C(=O)N[C@@H](Cc1c[nH]c2ccccc12)C(=O)N[C@@H](CC(C)C)C(=O)N[C@@H](CC(C)C)C(=O)N[C@@H](CC(N)=O)C(=O)N[C@H](C(=O)O)[C@@H](C)O)C(C)C` [Example 3] (H-HSQGTFTSDYSKYLDSKKAQEFVK([AEEA-AEEA-γGlu-C18 diacid])WLLNT-OH) returned a half-life at 10 μM in series [2] of 4.33 h. Besides, the half-life was about 8.6 h in series [3] (iv, 15 nmol/kg) and about 9.4 h in series [3] (sc, 30 nmol/kg). For the same molecule, the EC50 in series [4] worked out at 0.019 nM.

Regarding `CC(C)C[C@H](NC(=O)[C@H](Cc1ccc(O)cc1)NC(=O)[C@H](CCCNC(=N)N)NC(=O)[C@H](CO)NC(=O)[C@H](Cc1ccc(O)cc1)NC(=O)[C@H](CC(=O)O)NC(=O)[C@H](CO)NC(=O)[C@@H](NC(=O)[C@H](Cc1ccccc1)NC(=O)[C@@H](NC(=O)CNC(=O)[C@H](CCC(N)=O)NC(=O)[C@H](CO)NC(=O)[C@@H](N)Cc1c[nH]cn1)[C@@H](C)O)[C@@H](C)O)C(=O)N[C@@H](CC(=O)O)C(=O)N[C@@H](CO)C(=O)N[C@@H](CCCNC(=N)N)C(=O)N[C@@H](CCCNC(=N)N)C(=O)N[C@@H](C)C(=O)N[C@@H](CCC(N)=O)C(=O)N[C@@H](CC(=O)O)C(=O)N[C@@H](Cc1ccccc1)C(=O)N[C@H](C(=O)N[C@@H](CCCCNC(=O)COCCOCCNC(=O)COCCOCCNC(=O)CC[C@H](NC(=O)CCCCCCCCCCCCCCCCC(=O)O)C(=O)O)C(=O)N[C@@H](Cc1c[nH]c2ccccc12)C(=O)N[C@@H](CC(C)C)C(=O)N[C@@H](CC(C)C)C(=O)N[C@@H](CC(N)=O)C(=O)N[C@H](C(=O)O)[C@@H](C)O)C(C)C` [Example 20] (H-HSQGTFTSDYSRYLDSRRAQDFVK([AEEA-AEEA-γGlu-C18 diacid])WLLNT-OH; N-terminus and C-terminus assumed), the EC50 in series [1] came out at 0.109 nM.

With `CC(C)C[C@H](NC(=O)[C@H](Cc1ccc(O)cc1)NC(=O)[C@H](CCCCN)NC(=O)[C@H](CO)NC(=O)[C@H](Cc1ccc(O)cc1)NC(=O)[C@H](CC(=O)O)NC(=O)[C@H](CO)NC(=O)[C@@H](NC(=O)[C@H](Cc1ccccc1)NC(=O)[C@@H](NC(=O)CNC(=O)[C@H](CCC(N)=O)NC(=O)[C@H](CO)NC(=O)[C@@H](N)Cc1c[nH]cn1)[C@@H](C)O)[C@@H](C)O)C(=O)N[C@@H](CC(=O)O)C(=O)N[C@@H](CO)C(=O)N[C@@H](CCCNC(=N)N)C(=O)N[C@@H](CCCNC(=N)N)C(=O)N[C@@H](C)C(=O)N[C@@H](CCC(N)=O)C(=O)N[C@@H](CC(=O)O)C(=O)N[C@@H](Cc1ccccc1)C(=O)N[C@H](C(=O)N[C@@H](CCCCNC(=O)CC[C@H](NC(=O)CC[C@H](NC(=O)CC[C@H](NC(=O)CCCCCCCCCCCCCCCCC(=O)O)C(=O)O)C(=O)O)C(=O)O)C(=O)N[C@@H](Cc1c[nH]c2ccccc12)C(=O)N[C@@H](CC(C)C)C(=O)N[C@@H](CC(C)C)C(=O)N[C@@H](CO)C(=O)N[C@H](C(=O)O)[C@@H](C)O)C(C)C` [Example 71, N^ε24-[(4S)-4-carboxy-4-[[(4S)-4-carboxy-4-[[(4S)-4-carboxy-4-(17-carboxyheptadecanoylamino)butanoyl]amino]butanoyl]amino]butanoyl]-[Lys^24,Leu^27,Ser^28]-Glucagon], the “Th T assay [Lag time]” value in series [5] came to 45 h. This molecule also displayed a concentration for a half-maximal effect (EC50) in series [4] of 0.094 nM.

Regarding `CC(C)C[C@H](NC(=O)[C@H](Cc1ccc(O)cc1)NC(=O)[C@H](CCCCN)NC(=O)[C@H](CO)NC(=O)[C@H](Cc1ccc(O)cc1)NC(=O)[C@H](CC(=O)O)NC(=O)[C@H](CO)NC(=O)[C@@H](NC(=O)[C@H](Cc1ccccc1)NC(=O)[C@@H](NC(=O)CNC(=O)[C@H](CCC(N)=O)NC(=O)[C@H](CO)NC(=O)[C@@H](N)Cc1c[nH]cn1)[C@@H](C)O)[C@@H](C)O)C(=O)N[C@@H](CC(=O)O)C(=O)N[C@@H](CO)C(=O)N[C@@H](CCCNC(=N)N)C(=O)N[C@@H](CCCNC(=N)N)C(=O)N[C@@H](C)C(=O)N[C@@H](CCC(N)=O)C(=O)N[C@@H](CC(=O)O)C(=O)N[C@@H](Cc1ccccc1)C(=O)N[C@H](C(=O)N[C@@H](CCCCNC(=O)CC[C@H](NC(=O)COCCOCCNC(=O)COCCOCCNC(=O)CC[C@H](NC(=O)CC[C@H](NC(=O)CCCCCCCCCCCCCCCCC(=O)O)C(=O)O)C(=O)O)C(=O)O)C(=O)N[C@@H](Cc1c[nH]c2ccccc12)C(=O)N[C@@H](CC(C)C)C(=O)N[C@@H](CC(C)C)C(=O)N[C@@H](CO)C(=O)N[C@H](C(=O)O)[C@@H](C)O)C(C)C` [Example 68, N^ε24-[(4S)-4-carboxy-4-[[2-[2-[2-[[2-[2-[2-[[(4S)-4-carboxy-4-[[(4S)-4-carboxy-4-(17-carboxyheptadecanoylamino)butanoyl]amino]butanoyl]amino]ethoxy]ethoxy]acetyl]amino]ethoxy]ethoxy]acetyl]amino]butanoyl]-[Lys^24,Leu^27,Ser^28]-Glucagon], it took 0.106 nM to reach a half-maximal effect in series [4] (EC50).

In turn, `CC(C)C[C@H](NC(=O)[C@H](Cc1ccc(O)cc1)NC(=O)[C@H](CCCCN)NC(=O)[C@H](CO)NC(=O)[C@H](Cc1ccc(O)cc1)NC(=O)[C@H](CC(=O)O)NC(=O)[C@H](CO)NC(=O)[C@@H](NC(=O)[C@H](Cc1ccccc1)NC(=O)[C@@H](NC(=O)CNC(=O)[C@H](CCC(N)=O)NC(=O)[C@H](CO)NC(=O)[C@@H](N)Cc1c[nH]cn1)[C@@H](C)O)[C@@H](C)O)C(=O)N[C@@H](CC(=O)O)C(=O)N[C@@H](CO)C(=O)N[C@@H](CCCNC(=N)N)C(=O)N[C@@H](CCCNC(=N)N)C(=O)N[C@@H](C)C(=O)N[C@@H](CCC(N)=O)C(=O)N[C@@H](CC(=O)O)C(=O)N[C@@H](Cc1ccccc1)C(=O)N[C@H](C(=O)N[C@@H](CCC(N)=O)C(=O)N[C@@H](Cc1c[nH]c2ccccc12)C(=O)N[C@@H](CC(C)C)C(=O)N[C@@H](CC(C)C)C(=O)N[C@@H](CCCCNC(=O)CC[C@H](NC(=O)COCCOCCNC(=O)COCCOCCNC(=O)CC[C@H](NC(=O)CC[C@H](NC(=O)CCCCCCCCCCCCCCCCC(=O)O)C(=O)O)C(=O)O)C(=O)O)C(=O)N[C@H](C(=O)O)[C@@H](C)O)C(C)C` [Example 66, N^ε28-[(4S)-4-carboxy-4-[[2-[2-[2-[[2-[2-[2-[[(4S)-4-carboxy-4-[[(4S)-4-carboxy-4-(17-carboxyheptadecanoylamino)butanoyl]amino]butanoyl]amino]ethoxy]ethoxy]acetyl]amino]ethoxy]ethoxy]acetyl]amino]butanoyl]-[Leu^27,Lys^28]-Glucagon] gave an EC50 in series [4] of 0.093 nM.
